The source of these data is ChEMBL document CHEMBL3244373, “Stereoselective effects of cis- and trans-cyclopropylbis (dioxopiperazines) related to ICRF-159 on metastases of hamster lung adenocarcinoma” (J Med Chem, 1978).

The source made the active and inactive calls. The calls are words filed in the database; no cut-off is given here.

The subject of data set [1] is Mesocricetus auratus. In words: Antimetastatic activity against Syrian hamster LG1002 cells allografted to Syrian golden hamster LSH/LAK assessed as reduction of lung metastases at 15 mg/kg, ip for every 48 hrs for 4 weeks measured after 48 hrs of last treatment relative to carboxymethylcellulose. Type of data set: functional, organism-based. Further details: dose 15 mg/kg.

The subject of data set [2] is Mesocricetus auratus. Put plainly: Antimetastatic activity against Syrian hamster LG1002 cells allografted to Syrian golden hamster LSH/LAK assessed as reduction of lung metastases at 15 mg/kg, ip for every 48 hrs for 4 weeks measured after 48 hrs of last treatment relative to saline control. It counts as functional, organism-based. More on the design: dose 15 mg/kg.

The nature of data set [3]: Induction of tumor growth in Syrian hamster LG1002 cells in allografted Syrian golden hamster at 15 mg/kg, ip for every 48 hrs for 4 weeks measured after 48 hrs of last treatment on day 28. Further details: dose 15 mg/kg, route intraperitoneal. As to conditions: in vivo. It counts as organism-based, Mesocricetus auratus.
A short description of data set [4]: Induction of tumor growth in Syrian hamster LG1002 cells in allografted Syrian golden hamster at 15 mg/kg, ip for every 48 hrs for 4 weeks measured after 48 hrs of last treatment. It counts as organism-based, Mesocricetus auratus. Further details: dose 15 mg/kg, route intraperitoneal. The conditions noted are these: in vivo.

Consider `O=C1CN([C@H]2C[C@@H]2N2CC(=O)NC(=O)C2)CC(=O)N1` (relative stereo), for which the inhibition result in data set [1] and in data set [2] was “inactive” each time. The values for the Activity in data set [3] and in data set [4] were more than 100 mm2 and “Toxic”, respectively.
Regarding `O=C1CN([C@@H]2C[C@@H]2N2CC(=O)NC(=O)C2)CC(=O)N1`, the inhibition result in data set [1] and in data set [2] was “Active” throughout. Further, the Activity result in data set [4] was “Non-toxic”.
